Assay results: US11260132B2, “Engineered liposomes as cancer-targeted therapeutics” (Children's Medical Center Corporation, priority 2017, dated 2022)

Tested on: MDA-MB-436 cells
Assay: CEL-Dox cytotoxicity, Dojindo cell viability assay (Example 1)
Format: cell-based, human
Details: 6 h treatment, grown 48 h, CEL-Dox at 1.5:1
Procedure: The cytotoxicity of CEL-Dox on TNBC cells were evaluated using a cell viability assay. 5×10^3 cells (MDA-MB-231 and MDA-MB-436) were seeded in each well of a 96 well plate and incubated for 24 h. Cells were treated with (1) PBS, (2) Free Dox, (3) non-specific IgG-conjugated, Dox-encapsulating liposomes (IgG-Dox-LPs), (4) ICAM-1 antibody-conjugated, Dox-encapsulating liposomes (ICAM-1-Dox-LP), (5) EGFR antibody-conjugated, Dox-encapsulating liposomes (EGFR-Dox-LP), and (6) Dox-encapsulating CELs at optimal ICAM-1/EGFR antibody ratios (4.2/1 for MDA-MB-231 cells, and 1.5/1 for MDA-MB-436 cells) at the final liposome concentration of 1 μM lipids per 10^6 cells for 6 hours. Cells were rinsed three times with PBS and grown for 48 hours. Cell viability was determined by a Dojindo cell counting kit using the protocol from the manufacturer (Rockville, Md.).

COc1cccc2c1C(=O)c1c(O)c3c(c(O)c1C2=O)C[C@@](O)(C(=O)CO)C[C@@H]3O[C@H]1C[C@H](N)[C@H](O)[C@H](C)O1 [free Dox, doxorubicin]
half maximal inhibitory concentration (IC50): 0.0355 µg/mL
